{
  "source": "patent US20240408211A1",
  "about": "“COMPOSITIONS AND METHODS OF AMELIORATING AVERSIVENESS OF AVERSIVE STIMULI BY INHIBITION OF PURINERGIC RECEPTORS” (Monell Chemical Senses Center, priority 2021, published 2024)",
  "key": {"C57BL/6J mice": {"tested_on": "C57BL/6J mice", "assay": "Brief-exposure gustometer lick test after oral swabbing (or IP injection) of briefly anesthetized mice", "format": "in vivo, mouse", "description": "The methods were adapted from those described by Vandenbeuch et al [Vandenbeuch, A., et al., Postsynaptic P2X3-containing receptors in gustatory nerve fibres mediate responses to all taste qualities in mice. J Physiol 593:1113-1125; 2015] who, (a) in anesthetized mice, flowed AF-353 over the anterior tongue then recorded gustatory nerve responses to tastants [see also (Larson, E. D., et al., Function, innervation, and neurotransmitter signaling in mice lacking Type-II taste cells. eNeuro 7; 2020)] and (b), in awake mice, injected AF-353 intraperitoneally then measured licking for the sweetener SC-45647. Here, we applied AF-353 to the oral cavity of briefly anesthetized mice then measured licking using procedures similar to those of our past work [Med Associates inc. Products: Gustometry, med-associates.com/product/davis-rig-for-mouse-16-bottle/. 2022; Taruno, A., et al., CALHM1 ion channel mediates purinergic neurotransmission of sweet, bitter and umami tastes. Nature 495:223-226; 2013; Tordoff, M. G., et al., Normal taste acceptance and preference of PANX1 knockout mice. Chem. Senses 2015 May 18. pii: bjv025; 2015; Tordoff, M. G.; Aleman, T. R.; McCaughey, S. A. Heightened avidity for trisodium pyrophosphate in mice lacking Taslr3. Chem. Senses 40:53-59; 2014; Tordoff, M. G.; Ellis, H. T. Taste dysfunction in BTBR mice due to a mutation of Itpr3, the inositol triphosphate receptor 3 gene. Physiol. Genomics 45:834-855; 2013] and other investigators [Glendinning, J. I.; Gresack, J.; Spector, A. C. A high-throughput screening procedure for identifying mice with aberrant taste and oromotor function. Chem. Senses 27:461-474; 2002].\nGroups of 16 male C57BL/6J mice aged 7 weeks old were purchased from The Jackson Laboratory (strain ID number 000664). They were maintained in a vivarium at 23° C. on a 12 h:12 h light/dark cycle, with lights off at 1800. When not being tested, mice were housed alone in plastic tub cages (26.5×17×12 cm) with a stainless-steel grid lid and wood chips scattered on the floor [see (Tordoff, M. G.; Bachmanov, A. A. Monell mouse taste phenotyping project. Monell Chemical Senses Center, monell.org/MMTPP. 2001) for details]. The mice ate pelleted chow (Teklad 8601) and drank deionized water according to the regimen described below. Each mouse was weighed daily, immediately before it was placed into a gustometer.\nBrief-exposure taste acceptance was assessed using MS160-Mouse gustometers manufactured by DiLog Instruments (now available from Med Associates). Each gustometer consists of a 14.5×30×15 cm test chamber with a motorized shutter that controls access to a taste solution. Bottles of taste solution are mounted on a rack that is precisely positioned by a stepper motor so that any one of eight different taste solutions can be presented to the mouse. The drinking spout of each bottle is part of a high-frequency alternating current contact circuit, so that each lick the mouse makes is detected and recorded. Details of construction and other technical information are available elsewhere [Med Associates inc. Products: Gustometry, med-associates.com/product/davis-rig-for-mouse-16-bottle/. 2022; Sheridan, C. Merck stakes out ‘irritable’ neuron territory with $1.25 billion. Nature biotechnology 34:900; 2016].\nTo train the mice to sample taste solutions, they were first deprived of water for 22.5 h, and then placed into a gustometer with its shutter open. During this first training session, each mouse had continuous access to water for 30 min. It was then returned to its home cage and given water for 1 h. During the following two days, this procedure was repeated, except the shutter allowing access to water was closed 5 sec after each time the mouse began to lick, and was re-opened after a 7.5-sec interval. After 20 min, the mouse was returned to its home cage and given water for 1 h. By the second test using these procedures, nearly all mice had learned to obtain water during the 5-sec access periods. […]"}, "mice": {"tested_on": "mice", "conditions": "intraperitoneal administration; cited from earlier work"}, "[1]": {"conditions": "0.3, 1 or 3 mM swabbed orally for 4 min versus vehicle"}, "[2]": {"conditions": "oral swabbing for 2, 4 or 8 min versus no swabbing"}},
  "data": [
    {"smiles": "COc1cc(C(C)C)c(Oc2cnc(N)nc2N)cc1I", "note": "[AF-353, 5-[5-iodo-4-methoxy-2-(1-methylethyl)phenoxy]-2,4-pyrimidinediamine]", "values": [
      {"measurement": "licking for 1 mM QHCl, oral versus intraperitoneal administration of the same dose", "setting": "C57BL/6J mice; 0.41 μmol/mouse", "result": "significantly more after AF-353 administered orally"},
      {"measurement": "licking for 1 mM QHCl versus DMSO vehicle", "setting": "C57BL/6J mice; 0.41 μmol/mouse by oral swabbing or IP injection (either route)", "result": "licked significantly more"},
      {"measurement": "effect on licking for capsaicin (ANOVA)", "setting": "C57BL/6J mice; 3 mM for 4 min", "result": "neither a main effect of AF-353 nor an AF-353× concentration interaction"},
      {"measurement": "licking of the hedonically positive tastant saccharin relative to DMSO vehicle", "setting": "C57BL/6J mice; 3 mM for 4 min", "result": "licked less"},
      {"measurement": "licking of hedonically negative tastants relative to DMSO vehicle", "setting": "C57BL/6J mice; 3 mM for 4 min, all (QHCl, urea, denatonium, SOA, Tenofovir Alafenamide, Praziquantel, Ferroquine, citric acid) except NaCl and capsaicin", "result": "licked more"},
      {"measurement": "licking for 1 mM QHCl after oral treatment versus either vehicle", "setting": "C57BL/6J mice; 3 mM in DMSO or alcohol+Tween", "result": "licked significantly more"},
      {"measurement": "influence of the vehicle composition (DMSO or alcohol+Tween) on licking rates", "setting": "C57BL/6J mice; 3 mM oral swab, water or 1 mM QHCl", "result": "did not influence licking rates"},
      {"measurement": "lick rates for 1 mM QHCl compared with deionized water", "setting": "C57BL/6J mice; 3 mM swabbed orally for 4 min", "result": "statistically indistinguishable"},
      {"measurement": "licking after oral swabbing relative to oral swabbing with DMSO vehicle (FIG. 4A)", "setting": "C57BL/6J mice; 3 mM, 0.41 μmol/mouse, route experiment", "result": "reduced licking"},
      {"measurement": "1 mM QHCl licking after 60-min interval relative to 10- and 30-min intervals", "setting": "C57BL/6J mice; 3 mM, 4 min", "result": "significantly reduced"},
      {"measurement": "lick rates for 1 mM QHCl, 10-min versus 30-min swab-test interval", "setting": "C57BL/6J mice; 3 mM, 4 min", "result": "no difference"},
      {"measurement": "effectiveness at 90 min after oral treatment", "setting": "C57BL/6J mice; 3 mM, 4 min, 1 mM QHCl licking", "result": "completely dissipated"},
      {"measurement": "lick rates for water by swab-test interval", "setting": "C57BL/6J mice; 3 mM, 4 min, interval 10, 30, 60 or 90 min", "result": "no effect"},
      {"measurement": "lick rate for 1 mM QHCl", "setting": "C57BL/6J mice; [1]", "result": "concentration-related increase"},
      {"measurement": "lick rates for deionized water", "setting": "C57BL/6J mice; [1]", "result": "no significant effects"},
      {"measurement": "Licks to water (mean ± SE licks made in 10-sec tests)", "setting": "C57BL/6J mice; Capsaicin experiment, 3 mM oral swab", "result": "50 ± 9"},
      {"measurement": "Licks to water (mean ± SE licks made in 10-sec tests)", "setting": "C57BL/6J mice; Citric acid experiment, 3 mM oral swab", "result": "44 ± 4"},
      {"measurement": "Licks to water (mean ± SE licks made in 10-sec tests)", "setting": "C57BL/6J mice; Denatonium experiment, 3 mM oral swab", "result": "53 ± 3"},
      {"measurement": "Licks to water (mean ± SE licks made in 10-sec tests)", "setting": "C57BL/6J mice; Ferroquine experiment, 3 mM oral swab", "result": "47 ± 3"},
      {"measurement": "Licks to water (mean ± SE licks made in 10-sec tests)", "setting": "C57BL/6J mice; NaCl experiment, 3 mM oral swab", "result": "57 ± 5"},
      {"measurement": "Licks to water (mean ± SE licks made in 10-sec tests)", "setting": "C57BL/6J mice; Praziquantel experiment, 3 mM oral swab", "result": "52 ± 3"},
      {"measurement": "Licks to water (mean ± SE licks made in 10-sec tests)", "setting": "C57BL/6J mice; QHCl experiment, 3 mM oral swab", "result": "56 ± 4"},
      {"measurement": "Licks to water (mean ± SE licks made in 10-sec tests)", "setting": "C57BL/6J mice; Saccharin experiment, 3 mM oral swab", "result": "14 ± 2"},
      {"measurement": "Licks to water (mean ± SE licks made in 10-sec tests)", "setting": "C57BL/6J mice; Tenofovir experiment, 3 mM oral swab", "result": "56 ± 2"},
      {"measurement": "Licks to water (mean ± SE licks made in 10-sec tests)", "setting": "C57BL/6J mice; Urea experiment, 3 mM oral swab", "result": "43 ± 5"},
      {"measurement": "lick rates for 1 mM QHCl", "setting": "C57BL/6J mice; [2]", "result": "increased monotonically"},
      {"measurement": "lick rates for deionized water", "setting": "C57BL/6J mice; [2]", "result": "reduced lick rates for deionized water significantly"},
      {"measurement": "preference for SC-45647 shown by vehicle-administered mice", "setting": "mice", "result": "eliminated"}
    ]}
  ]
}
